The experiment relates to 3D NHL spheroids with active immune cells. Briefly: Proteomic analysis of perfusate media from 3D NHL (lymphoma) spheroids on-chip. To be noted: significantly higher than lenalidomide-treated monocultures or spheroids with inactive immune cells, data not shown. Format: cell-based.

In the case of `Nc1cccc2c1CN(C1CCC(=O)NC1=O)C2=O` (centres unmarked) [lenalidomide], the “secretion of IL8” value is listed as “increased secretion” and the “secretion of cytolytic granzyme B” value is reported as “increased secretion”.

The values above are taken from US20220212192A1, “Microfluidic Device for High-Throughput Screening of Tumor Cell Adhesion and Motility” (Northeastern University, priority 2019, published 2022).
